Measured values taken from patent publication US20160235824A1, “Compositions and Methods for Increasing the Half-Life of Factor XA” (THE CHILDREN'S HOSPITAL OF PHILADELPHIA, priority 2013, published 2016).
“Also recorded” adds a separate entry of the source.

What was measured:
[1] = tested on: citrated human blood; assay: rotational thromboelastography (ROTEM) in whole blood; conditions: 250 nM apixaban alone vs untreated (PBS) control blood
Method: FIG. 2 provides a graph of rotational thromboelastograms performed using freshly collected, citrated human blood treated with 25 μg/mL corn trypsin inhibitor (to minimize variation in samples). […] Phosphate buffered saline (PBS) was added to one sample instead of apixaban […].
A coagulation initiator is added, and as the blood clots, rotation of the pin is restricted, which is detected optically by the instrument.

[2] = cited from earlier work
[3] = tested on: normal human platelet poor plasma (PPP); assay: thrombin generation assay (TGA) in platelet poor plasma; type: biochemical
[4] = tail-clip hemostasis experiments in mice; type: in vivo
[5] = biological target: FXa-antithrombin III (FXa-ATIII) complex (Homo sapiens, UniProt P00742); assay: FXa-antithrombin III complex formation in FX deficient plasma (ELISA); type: biochemical; conditions: 100 nM or 1 μM rivaroxaban
Sequence of FXa-antithrombin III (FXa-ATIII) complex (P00742 235-488 limits assumed): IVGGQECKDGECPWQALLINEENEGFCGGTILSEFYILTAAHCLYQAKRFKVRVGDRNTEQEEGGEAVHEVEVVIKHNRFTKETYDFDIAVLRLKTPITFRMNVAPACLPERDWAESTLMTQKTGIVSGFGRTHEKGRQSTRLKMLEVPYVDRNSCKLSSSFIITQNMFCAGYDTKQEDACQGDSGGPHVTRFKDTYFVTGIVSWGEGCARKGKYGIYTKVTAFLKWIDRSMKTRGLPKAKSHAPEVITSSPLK
Sequence of FXa-antithrombin III (FXa-ATIII) complex (P00742 41-179 limits assumed): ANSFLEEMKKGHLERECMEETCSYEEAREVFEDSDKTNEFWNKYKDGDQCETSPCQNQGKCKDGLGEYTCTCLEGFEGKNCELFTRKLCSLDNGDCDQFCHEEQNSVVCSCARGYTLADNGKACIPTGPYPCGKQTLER

SMILES	effect on clot time [1]	effect on clot time ([1]; listed as Apixaban)	plasma protein binding [2]	peak thrombin generation ([3]; 500 nM rivaroxaban alone)	effect on thrombin generation ([3]; 2.5 μM rivaroxaban alone)	effect on thrombin generation ([3]; inhibitor alone added to normal human plasma (PPP))	blood loss ([4]; 50 mg/kg rivaroxaban alone)	effect on blood loss ([4]; rivaroxaban alone)	effect on FXa-ATIII complex formation [5]
COc1ccc(-n2nc(C(N)=O)c3c2C(=O)N(c2ccc(N4CCCCC4=O)cc2)CC3)cc1 [apixaban]	prolonged the clot time	prolonged the clot time substantially	heavily protein-bound	–	–	–	–	–	–
O=C(NC[C@H]1CN(c2ccc(N3CCOCC3=O)cc2)C(=O)O1)c1ccc(Cl)s1 [rivaroxaban]	–	–	heavily protein-bound	~10 % of normal	completely abrogated thrombin generation	profoundly decrease thrombin generation; also recorded: dose-dependently inhibited thrombin generation	217 % of normal	dose-dependently increased blood loss	dose-dependently inhibited
